By IC50 is commonly meant the point on the concentration scale where inhibition reaches its midpoint.

The structures appear in SMILES notation.

The target of one assay is T1, human recombinant HDAC6 (Homo sapiens, UniProt Q9UBN7).
T1 construct: purchased Calbiochem 382180
T1 sequence (Q9UBN7 1-1215): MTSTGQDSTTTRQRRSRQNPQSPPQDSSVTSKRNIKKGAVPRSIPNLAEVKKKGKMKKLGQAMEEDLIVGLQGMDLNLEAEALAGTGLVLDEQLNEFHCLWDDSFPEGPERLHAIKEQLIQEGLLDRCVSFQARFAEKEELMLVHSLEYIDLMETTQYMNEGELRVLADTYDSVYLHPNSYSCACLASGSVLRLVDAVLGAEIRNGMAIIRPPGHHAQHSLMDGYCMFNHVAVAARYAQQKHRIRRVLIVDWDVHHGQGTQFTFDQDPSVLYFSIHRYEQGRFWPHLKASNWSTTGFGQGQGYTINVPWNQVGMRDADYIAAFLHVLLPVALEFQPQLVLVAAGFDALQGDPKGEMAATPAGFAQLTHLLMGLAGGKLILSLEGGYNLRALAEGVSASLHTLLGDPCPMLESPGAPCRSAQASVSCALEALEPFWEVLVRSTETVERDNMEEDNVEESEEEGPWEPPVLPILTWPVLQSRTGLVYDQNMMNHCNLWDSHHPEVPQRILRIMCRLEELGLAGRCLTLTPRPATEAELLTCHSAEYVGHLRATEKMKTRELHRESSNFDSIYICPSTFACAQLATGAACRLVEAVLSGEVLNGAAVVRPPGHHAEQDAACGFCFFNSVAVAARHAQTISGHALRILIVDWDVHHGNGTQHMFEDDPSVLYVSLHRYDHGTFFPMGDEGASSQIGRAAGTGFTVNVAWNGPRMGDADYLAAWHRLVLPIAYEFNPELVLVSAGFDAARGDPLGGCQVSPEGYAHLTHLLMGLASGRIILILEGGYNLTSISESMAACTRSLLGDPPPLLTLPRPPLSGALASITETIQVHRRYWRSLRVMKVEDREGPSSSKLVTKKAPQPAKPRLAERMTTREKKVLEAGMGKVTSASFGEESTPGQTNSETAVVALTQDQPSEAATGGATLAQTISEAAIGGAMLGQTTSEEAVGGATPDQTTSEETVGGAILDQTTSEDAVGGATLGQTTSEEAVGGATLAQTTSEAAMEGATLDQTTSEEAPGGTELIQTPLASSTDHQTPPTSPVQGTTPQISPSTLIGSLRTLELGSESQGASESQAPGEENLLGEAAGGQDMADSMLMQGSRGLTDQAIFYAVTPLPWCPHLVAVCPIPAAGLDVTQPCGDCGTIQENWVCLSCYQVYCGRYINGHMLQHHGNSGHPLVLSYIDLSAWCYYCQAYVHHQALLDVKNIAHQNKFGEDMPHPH
Kind of assay: HDAC6 enzyme activity inhibition (fluorimetric, in vitro). The class given is biochemical. Conditions: samples at 0.1, 1, 10, 100 and 1000 nM. On the procedure:
(§1) A HDAC enzyme inhibitory capacity of a test material was measured by using HDAC1 Fluorimetric Drug Discovery Assay Kit (Enzolifesciences: BML-AK511) and HDAC6 human recombinant (Calbiochem: 382180). For a HDAC1 assay, samples were treated at a concentration of 100, 1000 and 10000 nM. For a HDAC6 assay, samples were treated at a concentration of 0.1, 1, 10, 100 and 1000 nM.
(§2) For the test on the HDAC1 enzyme activity, human recombinant HDAC1 (BML-SE456) was used as a zymogen and Fluor de Lys®-SIRT1 (BNL-KI177) was used as a substrate. A 5-fold dilution of the compound was divided into a 96-well plate, after which 0.3 μg of the enzyme and […] of the substrate were inserted into each well and subjected to reaction at 37° C. for 60 minutes, such that Fluor de Lys® Developer II (BML-K1176) was inserted thereinto and subjected to reaction for 30 minutes and finished. After that, a fluorescence value (Ex 360, Em 460) was measured with a multi-plate reader (FlexStation 3, Molecular Device). An experiment on HDAC6 enzyme was conducted in accordance with the same protocol as in the HDAC1 enzyme activity test method by using human recombinant HDAC6 (382180) of Calbiochem Inc. For final result values, each IC50 value was calculated with GraphPad Prism 4.0 program.

The target in a further assay is T2, human recombinant HDAC1 (Homo sapiens, UniProt Q13547).
T2 construct: purchased Enzolifesciences BML-SE456
The assay can be described thus: HDAC1 enzyme activity inhibition (HDAC1 Fluorimetric Drug Discovery Assay Kit, in vitro). The class given is biochemical. As to conditions: samples at 100, 1000 and 10000 nM. The protocol: as §1, §2

T2 sequence (Q13547 whole entry): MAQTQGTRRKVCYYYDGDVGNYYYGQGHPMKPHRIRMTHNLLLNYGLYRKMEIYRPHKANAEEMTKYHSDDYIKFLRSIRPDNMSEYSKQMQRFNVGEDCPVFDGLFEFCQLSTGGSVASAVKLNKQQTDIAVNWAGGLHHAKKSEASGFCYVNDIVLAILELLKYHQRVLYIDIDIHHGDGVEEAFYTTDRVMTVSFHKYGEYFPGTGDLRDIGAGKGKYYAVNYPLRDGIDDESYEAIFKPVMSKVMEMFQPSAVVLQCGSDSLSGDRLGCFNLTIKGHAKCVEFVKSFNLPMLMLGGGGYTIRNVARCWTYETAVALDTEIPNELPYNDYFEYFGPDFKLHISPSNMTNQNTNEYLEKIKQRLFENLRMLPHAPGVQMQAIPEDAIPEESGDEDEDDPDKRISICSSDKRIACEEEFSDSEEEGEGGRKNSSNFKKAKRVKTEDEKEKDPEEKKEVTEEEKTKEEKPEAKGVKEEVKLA

Regarding `N=S1(=O)CCN(C(=O)N(Cc2ccc(-c3nnc(C(F)F)o3)cc2F)c2ccccc2)CC1` [Compound 1, N-(4-(5-(difluoromethyl)-1,3,4-oxadiazol-2-yl)-2-fluorobenzyl)-1-imino-N-phenylthiomorpholin-4-carboxamide 1-oxide], the IC50 at human recombinant HDAC6 was 49.4 nM; at human recombinant HDAC1, over 10000 nM.
Taken in the same sequence, the figures for `O=C(N1CCS(=O)(=NC(=O)C(F)(F)F)CC1)N(Cc1ccc(-c2nnc(C(F)F)o2)cn1)c1ccccc1` [Compound 2, N-((5-(5-(difluoromethyl)-1,3,4-oxadiazol-2-yl)pyridin-2-yl)methyl)-N-phenyl-1-((2,2,2-trifluoroacetyl)imino)thiomorpholin-4-carboxamide 1-oxide] were 168 nM and over 10000 nM.
As for `N=S1(=O)CCN(C(=O)N(Cc2ccc(-c3nnc(C(F)F)o3)cn2)c2ccccc2)CC1` [Compound 3, N-((5-(5-(difluoromethyl)-1,3,4-oxadiazol-2-yl)pyridin-2-yl)methyl)-1-imino-N-phenylthiomorpholin-4-carboxamide 1-oxide], the IC50 was 151 nM on human recombinant HDAC6 and over 10000 nM on human recombinant HDAC1.
The matching figures for `O=C(N=S1(=O)CCN(C(=O)N(Cc2ccc(-c3nnc(C(F)F)o3)cc2F)c2ccccc2)CC1)OCc1ccccc1` [Compound 4, Benzyl (4-((4-(5-(difluoromethyl)-1,3,4-oxadiazol-2-yl)-2-fluorobenzyl)(phenyl)carbamoyl)-1-oxidothiomorpholin-1-ylidene)carbamate]: 390 nM and over 10000 nM.
The matching figures for `O=C(N=S1(=O)CCN(C(=O)N(Cc2ccc(-c3nnc(C(F)F)o3)cn2)c2ccccc2)CC1)OCc1ccccc1` [Compound 5, Benzyl (4-(((5-(5-(difluoromethyl)-1,3,4-oxadiazol-2-yl)pyridin-2-yl)methyl)(phenyl)carbamoyl)-1-oxidothiomorpholin-1-ylidene)carbamate]: 91.4 nM and over 10000 nM.
The matching figures for `N=S1(=O)CCN(C(=O)N(Cc2ccc(-c3nnc(C(F)F)o3)cc2F)c2ccc(F)c(F)c2)CC1` [Compound 6, N-(4-(5-(difluoromethyl)-1,3,4-oxadiazol-2-yl)-2-fluorobenzyl)-N-(3,4-difluorophenyl)-1-iminothiomorpholin-4-carboxamide 1-oxide]: 50 nM and over 10000 nM.
For `N=S1(=O)CCN(C(=O)N(Cc2ccc(-c3nnc(C(F)F)o3)cn2)c2ccc(F)c(F)c2)CC1` [Compound 7, N-((5-(5-(difluoromethyl)-1,3,4-oxadiazol-2-yl)pyridin-2-yl)methyl)-N-(3,4-difluorophenyl)-1-iminothiomorpholin-4-carboxamide 1-oxide], the IC50 on human recombinant HDAC6 was 40.9 nM; at human recombinant HDAC1 it was over 10000 nM.
Taken in the same sequence, the figures for `N=S1(=O)CCC(C(=O)N(Cc2ccc(-c3nnc(C(F)F)o3)cc2F)c2ccccc2)CC1` (stereo not shown) [Compound 8, N-(4-(5-(difluoromethyl)-1,3,4-oxadiazol-2-yl)-2-fluorobenzyl)-1-imino-N-phenyltetrahydro-2H-thiopyran-4-carboxamide 1-oxide] were 194 nM and over 10000 nM.
Taken in the same sequence, the figures for `N=S1(=O)CCN(C(=O)N(Cc2ccc(-c3nnc(C(F)(F)F)o3)cn2)c2ccccc2)CC1` [Compound 9, 1-imino-N-phenyl-N-((5-(5-(trifluoromethyl)-1,3,4-oxadiazol-2-yl)pyridin-2-yl)methyl)thiomorpholine-4-carboxamide 1-oxide] were 280 nM and over 10000 nM.
Taken in the same sequence, the figures for `Cn1ccc2cc(N(Cc3ccc(-c4nnc(C(F)F)o4)cc3F)C(=O)N3CCS(=N)(=O)CC3)ccc21` [Compound 10, N-(4-(5-(difluoromethyl)-1,3,4-oxadiazol-2-yl)-2-fluorobenzyl)-1-imino-N-(1-methyl-1H-indol-5-yl)thiomorpholin-4-carboxamide 1-oxide] were 108 nM and over 10000 nM.
As to `CS(=N)(=O)c1ccc(N(Cc2ccc(-c3nnc(C(F)F)o3)cc2F)C(=O)N2CCS(=N)(=O)CC2)cc1` (stereo not shown) [Compound 11, N-(4-(5-(difluoromethyl)-1,3,4-oxadiazol-2-yl)-2-fluorobenzyl)-1-imino-N-(4-(S-methylsulfonimidoyl)phenyl)thiomorpholin-4-carboxamide 1-oxide], the IC50 is 1420 nM at human recombinant HDAC6 and over 10000 nM at human recombinant HDAC1.
For the molecule `N=S1(=O)CCN(C(=O)N(Cc2ccc(-c3nnc(C(F)F)o3)cc2F)c2cccs2)CC1` [Compound 12, N-(4-(5-(difluoromethyl)-1,3,4-oxadiazol-2-yl)-2-fluorobenzyl)-1-imino-N-(thiophen-2-yl)thiomorpholin-4-carboxamide 1-oxide], the IC50 at human recombinant HDAC6 is 62.6 nM; on human recombinant HDAC1 it was over 10000 nM.
The matching figures for `N=S1(=O)CCN(C(=O)N(Cc2ccc(-c3nnc(C(F)F)o3)cc2F)c2cccc(F)c2)CC1` [Compound 13, N-(4-(5-(difluoromethyl)-1,3,4-oxadiazol-2-yl)-2-fluorobenzyl)-N-(3-fluorophenyl)-1-iminothiomorpholin-4-carboxamide 1-oxide]: 44 nM and over 10000 nM.
The matching figures for `Cn1ccc2cc(N(Cc3ccc(-c4nnc(C(F)F)o4)cn3)C(=O)N3CCS(=N)(=O)CC3)ccc21` [Compound 14, N-((5-(5-(difluoromethyl)-1,3,4-oxadiazol-2-yl)pyridin-2-yl)methyl)-1-imino-N-(1-methyl-1H-indol-5-yl)thiomorpholin-4-carboxamide 1-oxide]: 94.4 nM and over 10000 nM.
As for `CS(=N)(=O)c1ccc(N(Cc2ccc(-c3nnc(C(F)F)o3)cn2)C(=O)N2CCS(=N)(=O)CC2)cc1` (stereo not shown) [Compound 15, N-((5-(5-(difluoromethyl)-1,3,4-oxadiazol-2-yl)pyridin-2-yl)methyl)-1-imino-N-(4-(S-methylsulfonimidoyl)phenyl)thiomorpholin-4-carboxamide 1-oxide], the IC50 was 1350 nM at human recombinant HDAC6 and over 10000 nM on human recombinant HDAC1.
Take `N=S1(=O)CCN(C(=O)N(Cc2ccc(-c3nnc(C(F)F)o3)cn2)c2cccs2)CC1` [Compound 16, N-((5-(5-(difluoromethyl)-1,3,4-oxadiazol-2-yl)pyridin-2-yl)methyl)-1-imino-N-(thiophen-2-yl)thiomorpholin-4-carboxamide 1-oxide]: the figures for the IC50 on human recombinant HDAC6 and on human recombinant HDAC1 were 42.6 nM and over 10000 nM, respectively.
Taken in the same sequence, the figures for `N=S1(=O)CCN(C(=O)N(Cc2ccc(-c3nnc(C(F)F)o3)cn2)c2cccc(F)c2)CC1` [Compound 17] were 27.2 nM and over 10000 nM.
The matching figures for `N=S1(=O)CCN(S(=O)(=O)N(Cc2ccc(-c3nnc(C(F)F)o3)cc2F)c2ccccc2)CC1` [Compound 18, N-(4-(5-(difluoromethyl)-1,3,4-oxadiazol-2-yl)-2-fluorobenzyl)-1-imino-N-phenylthiomorpholin-4-sulfonamide 1-oxide]: 32.6 nM and over 10000 nM.
For the molecule `N=S1(=O)CC(N2C[C@@H]3C[C@H]2CN3c2c(N(Cc3ncc(-c4nnc(C(F)F)o4)cc3F)c3ccccc3)c(=O)c2=O)C1` (stereo partly drawn) [Compound 88, 3-[N-[[5-[5-(difluoromethyl)-1.3.4-oxadiazol-2-yl]-3-fluoro-2-pyridyl]methyl]anilino]-4-[(1S,4S)-5-(1-imino-1-oxo-thiethan-3-yl)-2,5-diazabicyclo[2.2.1]heptan-2-yl]cyclobut-3-en-1,2-dione], the IC50 at human recombinant HDAC1 was over 10000 nM.

For the origin of these results see patent publication US20260125370A1, “SULFOXIMINE COMPOUNDS AS HISTONE DEACETYLASE 6 INHIBITOR, AND PHARMACEUTICAL COMPOSITION COMPRISING THE SAME” (CHONG KUN DANG PHARMACEUTICAL CORP., priority 2022, published 2026).
